Several values for one entry are separate records, joined by “and”; a condition that tells them apart may be missing. Equal entries are not always repeated. Where two headings read alike, the source gives them in different places.
Experiments:
[1] = test system: lethal model of polytrauma, HS and TBI; assay: Serum AST and CPK in polytrauma, HS and TBI model (Example 1); type: in vivo, swine; conditions: for Serum aspartate aminotransferase (AST): 3 hours post-treatment
Description: (§1) Treatment groups are outlined in Table 1. […] In order to simulate prolonged field care (PFC) by a combat medic, three times the hemorrhage volume of NS was delivered centrally through femoral vein catheter over 1 hour using the Masterflex pump. […] To simulate delayed evacuation to definitive care after PFC, autologous packed red blood cells (pRBCs) were transfused 3 hours after the completion of shock phase at a rate of 25 mL/hr. Animals were then monitored for an additional 4 hours to simulate time in a critical care unit, after which animals were euthanized with Euthasol (sodium pentobarbital 100 mg/kg, Virbec, Fort Worth, Tex.) if the animal survived to the end of the experiment. Laboratory parameters were monitored, and electrolyte abnormalities (e.g. hyperkalemia and hypoglycemia) were corrected as needed.

lethal models of trauma = conditions: 300-450 mg/kg; cited from earlier work
[2] = Further experiments: infusion of 150 mg/kg over 1 hour, hemodynamic effects; type: in vivo; conditions: 150 mg/kg delivered over 1 hour
[3] = Pharmacokinetic Analysis (TABLE 1 in Example 1); type: in vivo, swine
[4] = test system: TBI by controlled cortical impact; assay: Brain lesion size, TTC staining, controlled for time (Example 1); type: in vivo, swine; conditions: VPA 150 (150 mg/kg over 3 h); lesion volume divided by time from injury
From the text: (§2) The animal was then flipped prone in preparation for TBI and additional hemorrhage. TBI was made by controlled cortical impact (Ref. 21; incorporated by reference in its entirety). A skin flap was raised on the anterior skull to expose the bregma, followed by a 21 mm burr hole on the right side next to the coronal and sagittal sutures to expose the dura. The computer controlled cortical impactor (University of Michigan Innovation Center, Ann Arbor, Mich.) was fired to produce a 10-mm depth injury. A 5-mm burr hole was made on the left for placement of the intracranial pressure (ICP) probe.

[5] = test system: lethal model of polytrauma, HS and TBI; assay: Hemodynamics (MAP, adverse hemodynamic effects) in polytrauma, HS and TBI model (Example 1)
From the text: (§3) Bilateral 5-Fr 11-cm arterial catheters and an 8-Fr 11-cm central venous catheter (Super Sheath, Boston Scientific Corporation, Marlborough, Mass.) were placed by femoral cutdown for arterial pressure monitoring, controlled arterial hemorrhage and central venous normal saline (NS; 0.9% sodium chloride solution) administration. An open cystostomy tube was placed for urine output monitoring. The right external jugular vein was then accessed percutaneously under ultrasound guidance, and a pulmonary artery catheter was placed for monitoring of pulmonary artery pressure and cardiac output.
as §1

[6] = Plasma VPA levels and pharmacokinetics (Example 1); type: in vivo, swine; conditions: for Clearance / Vd: pig, in vivo, iv; for Vd: read-out: Volume of distribution (Vd); for concentration at 5 h / concentration at 3 h: swine, plasma, intravenous, plasma VPA level; for concentration at 5 h: 5 hours after VPA infusion start
From the text: A separate group of sham animals underwent cannulation and line placement without infliction of polytrauma, hemorrhage or TBI for use in subsequent pharmacokinetic (PK) analysis.

histone acetylation = conditions: 150 mg/kg, at the end of a 3-hour VPA infusion; cited from earlier work
[7] = Serum VPA after IO versus IV infusion (Example 2); type: in vivo; conditions: swine, 150 mg/kg over 3 hours
Description: At the end of the shock phase, in order to simulate available resuscitative fluids available in a field care setting, all animals were resuscitated with normal saline via the femoral venous catheter with a standardized volume that was three times the hemorrhaged volume delivered over 1 hour. […] Placement of the needle was confirmed by aspiration of marrow and subsequent flush of 10 mL normal saline without extravasation. […] To simulate a delayed transfer to definitive care, 3 hours after the start of normal saline resuscitation, animals were transfused autologous packed red blood cells that were hemorrhaged earlier in the experiment. Animals were then monitored for another 4 hours to the predetermined end point. […] Arterial blood gases were drawn from the femoral arterial line serially throughout the experiment.
GraphPad Prism v8 was used to analyze data (GraphPad Software, San Diego, Calif.).

[8] = test system: non-lethal TBI and hemorrhagic shock; conditions: 150 mg/kg; cited from earlier work
[9] = test system: lethal model of polytrauma, HS and TBI; assay: Survival in lethal swine model of polytrauma, hemorrhage and TBI (Example 1); type: in vivo
From the text: as §3
A 5 cm segment of the left rectus muscle was exposed and crushed using a Kelly clamp to create a soft tissue injury. Femur fracture and liver injury were performed as previously described (Ref. 20; incorporated by reference in its entirety). The mid-femur was exposed and fractured with a 22-gauge captive bolt gun (Ramset Mastershot, Glendale Heights, Ill.) fired point-blank on the femur. A reproducible grade V liver laceration was created with a liver crunch device placed 1 cm lateral to the porta and 7 cm posterior on the dome of the liver. After laceration the liver was allowed to bleed freely for 30 seconds. […] Laparotomy pads were weighed at the end of the experiment to confirm a consistent liver injury (500±50 mL hemorrhage volume).
as §2
Concurrent with TBI, 40% estimated total blood volume was withdrawn over 20 minutes using a Masterflex pump (Cole-Palmer, Vernon Hills, Ill.). The initial 20% blood volume was removed over the first 7 minutes, followed by an additional 20% blood volume at a slower rate over the subsequent 13 minutes. […] Mean arterial pressure (MAP) was maintained between 30-35 mmHg by adjusting the inhaled isoflurane, pausing hemorrhage if MAP persisted <30 mm Hg and giving 50-100 mL fluid boluses of NS.
After completion of hemorrhage, a one-hour shock phase began. This one hour was designed to simulate medic response time from the initial injury. During the shock phase, MAP was again maintained between 30-35 mmHg in order to standardize the effect of hypotension on the injured brain.
as §1

[10] = test system: polytrauma, hemorrhage and TBI; assay: Survival after IO or IV VPA in polytrauma, hemorrhage and TBI (Example 2); type: in vivo, swine; conditions: 150 mg/kg over 3 hours
Description: Animals underwent placement of femoral venous and arterial lines, a pulmonary artery catheter, and open cystostomy for invasive monitoring, hemorrhage and resuscitation. […] The abdomen was then packed, and animal flipped prone in preparation for TBI and hemorrhage. A 12 mm depth TBI was inflicted using a controlled cortical impact device, and the animal was simultaneously hemorrhaged 40% of its estimated blood volume over 20 minutes. At the completion of hemorrhage, the animal was left unresuscitated and in shock for 1 hour to simulate medic response time.
At the end of the shock phase, in order to simulate available resuscitative fluids available in a field care setting, all animals were resuscitated with normal saline via the femoral venous catheter with a standardized volume that was three times the hemorrhaged volume delivered over 1 hour. Animals were randomized to receive either a VPA administered IO (TO group) or administered IV (IV group) or to a control group. […] Placement of the needle was confirmed by aspiration of marrow and subsequent flush of 10 mL normal saline without extravasation. […] Animals were then monitored for another 4 hours to the predetermined end point. […]

[11] = healthy human subjects, 140 mg/kg given over one hour; cited from earlier work
[12] = group mean of 5 VPA-treated animals
[13] = individual VPA-treated animals 1-5, dose and regimen not given
[14] = 100 mg/kg, VPA 100 (injured, 100 mg/kg over 3 h)
[15] = 150 mg/kg, VPA 150 (injured, 150 mg/kg over 3 h)

CCCC(CCC)C(=O)O [VPA, valproic acid]
creatine phosphokinase (CPK), group mean ([1]; VPA 100 (100 mg/kg over 3 h)): 1581±321
Serum aspartate aminotransferase (AST) ([1]; VPA 100 (100 mg/kg over 3 h)): 95±29
creatine phosphokinase (CPK), group mean ([1]; VPA 100 over 2 h): 927±233
Serum aspartate aminotransferase (AST) ([1]; VPA 100 over 2 h): 101±22
creatine phosphokinase (CPK), group mean ([1]; VPA 150 (150 mg/kg over 3 h)): 2428±1314
Serum aspartate aminotransferase (AST) ([1]; VPA 150 (150 mg/kg over 3 h)): 177±95
survival (lethal models of trauma): survival benefit
adverse hemodynamic effects [2]: does not cause adverse hemodynamic effects
Area Under Curve [3, 12]: 616 µg·h/mL
Maximum Concentration [3, 12]: 145 mg/L
Area Under Curve [3, 13]: 431.4 µg·h/mL and 827.6 µg·h/mL and 635.2 µg·h/mL and 521.1 µg·h/mL and 663.7 µg·h/mL
Clearance [3, 13]: 17.4 L/h and 7.43 L/h and 9.44 L/h and 13.2 L/h and 10.9 L/h
Half-life [3, 13]: 1.85 h and 1.65 h and 1.58 h
Maximum Concentration [3, 13]: 98.12 mg/L and 199.3 mg/L and 142.8 mg/L and 124.5 mg/L
Clearance ([3]; pig, in vivo, 150 mg/kg, group mean of 5 VPA-treated animals, read-out: Clearance (converted)): 11.2 L/h
Half-life ([3]; pig, in vivo, 150 mg/kg, group mean of 5 VPA-treated animals, read-out: Half-life (converted)): 1.7 h
Half-life ([3]; pig, in vivo, 150 mg/kg, individual VPA-treated animals 1-5, dose and regimen not given, read-out: Half-life (converted)): 1.81 h
brain lesion size controlled for time [4]: 4.1 mm^3/min
adverse hemodynamic effects ([5]; 100 mg/kg over 2 hours): without causing any adverse hemodynamic effects
adverse hemodynamic effects ([5]; 150 mg/kg over 3 hours): without causing any adverse hemodynamic effects
mean arterial pressure (MAP) after the treatment ([5]; VPA 150 (150 mg/kg over 3 hours) versus other groups): tended to have a higher MAP
Clearance ([6]; 100 mg/kg, 100 mg/kg over 2 h (injured)): 91.7 mL/min
Clearance [6, 14]: 68.3 mL/min
Vd [6, 14]: 16.1 ± 3.3 L
Vd ([6]; 150 mg/kg, Sham VPA (uninjured, 150 mg/kg over 3 h)): 12.1 ± 6 L
Clearance [6, 15]: 102 mL/min
Vd [6, 15]: 24.2 ± 3.8 L
concentration at 5 h ([6]; 100 mg/kg, VPA 100 over 2 h (injured)): 74 µg/mL
concentration at 3 h ([6]; 100 mg/kg, VPA 100 over 2 h (injured), three hours after start of infusion): 115 µg/mL
concentration at 3 h ([6]; 150 mg/kg, Sham VPA (uninjured, 150 mg/kg over 3 h), three hours after start of infusion (end of infusion)): 291 µg/mL
concentration at 5 h ([6]; 150 mg/kg, VPA 150 (injured)): 114 µg/mL
concentration at 3 h ([6]; 150 mg/kg, VPA 150 (injured, 150 mg/kg over 3 h), three hours after start of infusion (end of infusion)): 175 µg/mL
histone acetylation (histone acetylation): significant increase in histone acetylation
AUC ([7]; IV group): 294 to 356 µg·h/mL
AUC ([7]; other: intraosseous (IO needle in the left humeral head), IO group): 301 to 470 µg·h/mL
brain lesion size and neurologic recovery [8]: attenuating brain lesion size and improving neurologic recovery
survival ([9]; 100 mg/kg over 2 hours (faster rate of infusion)): improved survival
survival compared to NS resuscitation ([9]; 100 mg/kg over 3 hours): did not
survival compared to NS resuscitation ([9]; 150 mg/kg over 3 hours): significantly improved survival
survival ([9]; VPA 100: 100 mg/kg IV over 3 hours with NS resuscitation): 0%
survival ([9]; VPA 100 over 2 h: 100 mg/kg IV over 2 hours with NS resuscitation): 67%
survival ([9]; VPA 150: 150 mg/kg IV over 3 hours with NS resuscitation, survival to end of experiment): 83%
survival to the end of the experiment ([10]; IO group): 100%
survival to the end of the experiment ([10]; IV group): 100%
peak plasma level [11]: 1271 µg/mL

— patent publication US20230069590A1, “CONCENTRATED SODIUM VALPROATE FOR RAPID DELIVERY” (priority 2020, published 2023)
